Each compound was assayed on GST-Bcl-2 (assay: TR-FRET binding assay, Bcl-2). Details: TR-FRET Ki values.
Outline: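 Ki values come from Wang's competitive-binding equation applied to TR-FRET signal (excitation 340/35 nm; emission 520/525 nm F-Bak peptide, 495/510 nm Tb antibody). Protein, probe and antibody incubated with compound 3 h at room temperature; dilution series began at 50 μM as 2× stock in 10% DMSO.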

SMILES | Binding selectivity ratio (Bcl-XL Ki/Bcl-2 Ki)
CC1(C)CCC(CN2CCN(c3ccc(C(=O)NS(=O)(=O)c4ccc(NCC5CCOCC5)c([N+](=O)[O-])c4)c(Oc4ccc5[nH]ccc5c4)c3)CC2)=C(c2ccc(Cl)cc2)C1 [Example 177, 4-(4-{[2-(4-chlorophenyl)-4,4-dimethylcyclohex-1-en-1-yl]methyl}piperazin-1-yl)-2-(1H-indol-5-yloxy)-N-({3-nitro-4-[(tetrahydro-2H-pyran-4-ylmethyl)amino]phenyl}sulfonyl)benzamide] | 799.7
CC1(C)CCC(CN2CCN(c3ccc(C(=O)NS(=O)(=O)c4ccc(OCC5(F)CCOCC5)c(Cl)c4)c(Oc4cccc5[nH]ncc45)c3)CC2)=C(c2ccc(Cl)cc2)C1 [EXAMPLE 464, N-({3-chloro-4-[(4-fluorotetrahydro-2H-pyran-4-yl)methoxy]phenyl}sulfonyl)-4-(4-{[2-(4-chlorophenyl)-4,4-dimethylcyclohex-1-en-1-yl]methyl}piperazin-1-yl)-2-(1H-indazol-4-yloxy)benzamide] | 6432
CN1CCN(Nc2ccc(S(=O)(=O)NC(=O)c3ccc(N4CCN(CC5=C(c6ccc(Cl)cc6)CC(C)(C)CC5)CC4)cc3Oc3cccc4[nH]ccc34)cc2[N+](=O)[O-])CC1 [EXAMPLE 190, 4-(4-{[2-(4-chlorophenyl)-4,4-dimethylcyclohex-1-en-1-yl]methyl}piperazin-1-yl)-2-(1H-indol-4-yloxy)-N-({4-[(4-methylpiperazin-1-yl)amino]-3-nitrophenyl}sulfonyl)benzamide] | 189.6
CC1(C)CCC(CN2CCN(c3ccc(C(=O)NS(=O)(=O)c4ccc(NCC56CC7CC(C5)C(O)[C@H](C7)C6)c([N+](=O)[O-])c4)c(Oc4ccc5[nH]ccc5c4)c3)CC2)=C(c2ccc(Cl)cc2)C1 (stereo partly drawn) [EXAMPLE 321, 4-(4-{[2-(4-chlorophenyl)-4,4-dimethylcyclohex-1-en-1-yl]methyl}piperazin-1-yl)-N-{[4-({[(3R)-4-hydroxy-1-adamantyl]methyl}amino)-3-nitrophenyl]sulfonyl}-2-(1H-indol-5-yloxy)benzamide] | >957.9
CC1(C)CCC(CN2CCN(c3ccc(C(=O)NS(=O)(=O)c4ccc(NCC5CCS(=O)(=O)C5)c([N+](=O)[O-])c4)c(Oc4ccc5[nH]ccc5c4)c3)CC2)=C(c2ccc(Cl)cc2)C1 (stereo not shown) [EXAMPLE 275, 4-(4-{[2-(4-chlorophenyl)-4,4-dimethylcyclohex-1-en-1-yl]methyl}piperazin-1-yl)-N-[(4-{[(1,1-dioxidotetrahydrothien-3-yl)methyl]amino}-3-nitrophenyl)sulfonyl]-2-(1H-indol-5-yloxy)benzamide] | >6832.4
CN(C)C1CCC(Nc2ccc(S(=O)(=O)NC(=O)c3ccc(N4CCN(CC5=C(c6ccc(Cl)cc6)CC(C)(C)CC5)CC4)cc3Oc3cccc4[nH]ccc34)cc2[N+](=O)[O-])CC1 (stereo not shown) [EXAMPLE 202, 4-(4-{[2-(4-chlorophenyl)-4,4-dimethylcyclohex-1-en-1-yl]methyl}piperazin-1-yl)-N-[(4-{[4-(dimethylamino)cyclohexyl]amino}-3-nitrophenyl)sulfonyl]-2-(1H-indol-4-yloxy)benzamide] | 97.1
CC1(C)CCC(CN2CCN(c3ccc(C(=O)NS(=O)(=O)c4ccc(NCC5(N)CCOCC5)c([N+](=O)[O-])c4)c(Oc4ccc5[nH]ccc5c4)c3)CC2)=C(c2ccc(Cl)cc2)C1 [EXAMPLE 188, N-[(4-{[(4-aminotetrahydro-2H-pyran-4-yl)methyl]amino}-3-nitrophenyl)sulfonyl]-4-(4-{[2-(4-chlorophenyl)-4,4-dimethylcyclohex-1-en-1-yl]methyl}piperazin-1-yl)-2-(1H-indol-5-yloxy)benzamide] | 1135.4
CC1(C)CCC(CN2CCN(c3ccc(C(=O)NS(=O)(=O)c4ccc(NCCCN5CCCC5=O)c([N+](=O)[O-])c4)c(Oc4ccc5[nH]ccc5c4)c3)CC2)=C(c2ccc(Cl)cc2)C1 [EXAMPLE 374, 4-(4-{[2-(4-chlorophenyl)-4,4-dimethylcyclohex-1-en-1-yl]methyl}piperazin-1-yl)-2-(1H-indol-5-yloxy)-N-[(3-nitro-4-{[3-(2-oxopyrrolidin-1-yl)propyl]amino}phenyl)sulfonyl]benzamide] | >291.2
CC1(C)CCC(CN2CCN(c3ccc(C(=O)NS(=O)(=O)c4ccc(NC5CCS(=O)(=O)C5)c([N+](=O)[O-])c4)c(Oc4cccc5[nH]ccc45)c3)CC2)=C(c2ccc(Cl)cc2)C1 (stereo not shown) [EXAMPLE 299, 4-(4-{[2-(4-chlorophenyl)-4,4-dimethylcyclohex-1-en-1-yl]methyl}piperazin-1-yl)-N-({4-[(1,1-dioxidotetrahydrothien-3-yl)amino]-3-nitrophenyl}sulfonyl)-2-(1H-indol-4-yloxy)benzamide] | 577.7
CN1CCN(CCNc2ccc(S(=O)(=O)NC(=O)c3ccc(N4CCN(CC5=C(c6ccc(Cl)cc6)CC(C)(C)CC5)CC4)cc3Oc3ccc4[nH]ccc4c3)cc2[N+](=O)[O-])CC1 [Example 95, 4-(4-{[2-(4-chlorophenyl)-4,4-dimethylcyclohex-1-en-1-yl]methyl}piperazin-1-yl)-2-(1H-indol-5-yloxy)-N-[(4-{[2-(4-methylpiperazin-1-yl)ethyl]amino}-3-nitrophenyl)sulfonyl]benzamide] | 261.7
CC1(C)CCC(CN2CCN(c3ccc(C(=O)NS(=O)(=O)c4ccc(NCC5(N)CCOCC5)c([N+](=O)[O-])c4)c(Oc4cccc5[nH]ccc45)c3)CC2)=C(c2ccc(Cl)cc2)C1 [Example 176, N-[(4-{[(4-aminotetrahydro-2H-pyran-4-yl)methyl]amino}-3-nitrophenyl)sulfonyl]-4-(4-{[2-(4-chlorophenyl)-4,4-dimethylcyclohex-1-en-1-yl]methyl}piperazin-1-yl)-2-(1H-indol-4-yloxy)benzamide] | 177.8
CC1(C)CCC(CN2CCN(c3ccc(C(=O)NS(=O)(=O)c4ccc(N[C@@H]5CCN(CC(F)F)C5)c([N+](=O)[O-])c4)c(Oc4cccc5[nH]cnc45)c3)CC2)=C(c2ccc(Cl)cc2)C1 [EXAMPLE 407, 2-(1H-benzimidazol-4-yloxy)-4-(4-{[2-(4-chlorophenyl)-4,4-dimethylcyclohex-1-en-1-yl]methyl}piperazin-1-yl)-N-[(4-{[(3R)-1-(2,2-difluoroethyl)pyrrolidin-3-yl]amino}-3-nitrophenyl)sulfonyl]benzamide] | 4931
CC1(C)CCC(CN2CCN(c3ccc(C(=O)NS(=O)(=O)c4ccc(NCCCN5CCS(=O)(=O)CC5)c([N+](=O)[O-])c4)c(Oc4cccc5[nH]ccc45)c3)CC2)=C(c2ccc(Cl)cc2)C1 [EXAMPLE 295, 4-(4-{[2-(4-chlorophenyl)-4,4-dimethylcyclohex-1-en-1-yl]methyl}piperazin-1-yl)-N-[(4-{[3-(1,1-dioxidothiomorpholin-4-yl)propyl]amino}-3-nitrophenyl)sulfonyl]-2-(1H-indol-4-yloxy)benzamide] | 599.4
CC1(C)CCC(CN2CCN(c3ccc(C(=O)NS(=O)(=O)c4ccc(NCC5CCOCC5)c(C(F)(F)F)c4)c(Oc4ccc5[nH]ccc5c4)c3)CC2)=C(c2ccc(Cl)cc2)C1 [EXAMPLE 277, 4-(4-{[2-(4-chlorophenyl)-4,4-dimethylcyclohex-1-en-1-yl]methyl}piperazin-1-yl)-2-(1H-indol-5-yloxy)-N-{[4-[(tetrahydro-2H-pyran-4-ylmethyl)amino]-3-(trifluoromethyl)phenyl]sulfonyl}benzamide] | >22.2
CC1(C)CCC(CN2CCN(c3ccc(C(=O)NS(=O)(=O)c4ccc(NC5CCN(C6Cc7ccccc7C6)CC5)c([N+](=O)[O-])c4)c(Oc4ccc5[nH]ccc5c4)c3)CC2)=C(c2ccc(Cl)cc2)C1 [EXAMPLE 228, 4-(4-{[2-(4-chlorophenyl)-4,4-dimethylcyclohex-1-en-1-yl]methyl}piperazin-1-yl)-N-[(4-{[1-(2,3-dihydro-1H-inden-2-yl)piperidin-4-yl]amino}-3-nitrophenyl)sulfonyl]-2-(1H-indol-5-yloxy)benzamide] | >141.4
CC1(C)CCC(CN2CCN(c3ccc(C(=O)NS(=O)(=O)c4ccc(N[C@H]5CC[C@H](N6CCOCC6)CC5)c([N+](=O)[O-])c4)c(Oc4cccc5[nH]ncc45)c3)CC2)=C(c2ccc(Cl)cc2)C1 [EXAMPLE 402, Trans-4-(4-{[2-(4-chlorophenyl)-4,4-dimethylcyclohex-1-en-1-yl]methyl}piperazin-1-yl)-2-(1H-indazol-4-yloxy)-N-({4-[(4-morpholin-4-ylcyclohexyl)amino]-3-nitrophenyl}sulfonyl)benzamide] | 137.4
CC(C)C[C@@H](CO)Nc1ccc(S(=O)(=O)NC(=O)c2ccc(N3CCN(CC4=C(c5ccc(Cl)cc5)CC(C)(C)CC4)CC3)cc2Oc2ccc3[nH]ccc3c2)cc1[N+](=O)[O-] [EXAMPLE 369, 4-(4-{[2-(4-chlorophenyl)-4,4-dimethylcyclohex-1-en-1-yl]methyl}piperazin-1-yl)-N-[(4-{[(1S)-1-(hydroxymethyl)-3-methylbutyl]amino}-3-nitrophenyl)sulfonyl]-2-(1H-indol-5-yloxy)benzamide] | >0.8
CN(C)C1(CNc2ccc(S(=O)(=O)NC(=O)c3ccc(N4CCN(CC5=C(c6ccc(Cl)cc6)CC(C)(C)CC5)CC4)cc3Oc3ccc4[nH]ccc4c3)cc2[N+](=O)[O-])CCOCC1 [EXAMPLE 207, 4-(4-{[2-(4-chlorophenyl)-4,4-dimethylcyclohex-1-en-1-yl]methyl}piperazin-1-yl)-N-{[4-({[4-(dimethylamino)tetrahydro-2H-pyran-4-yl]methyl}amino)-3-nitrophenyl]sulfonyl}-2-(1H-indol-5-yloxy)benzamide] | >3021.3
O=C(NS(=O)(=O)c1ccc(NCC2CCOCC2)c(S(=O)(=O)C(F)(F)F)c1)c1ccc(N2CCN(Cc3ccccc3-c3ccc(Cl)cc3)CC2)cc1Oc1ccc2[nH]ccc2c1 [Example 62, 4-{4-[(4′-chloro-1,1′-biphenyl-2-yl)methyl]piperazin-1-yl}-2-(1H-indol-5-yloxy)-N-({4-[(tetrahydro-2H-pyran-4-ylmethyl)amino]-3-[(trifluoromethyl)sulfonyl]phenyl}sulfonyl)benzamide] | 162.4

Source: US9125913B2, “Bcl-2-selective apoptosis-inducing agents for the treatment of cancer and immune diseases” (AbbVie Inc., priority 2008, dated 2015)
